Experimental data reported in patent US20100221388A1, “INSTANTLY SOLUBLE COMPOSITIONS FOR CALCIUM FORTIFICATION OF BEVERAGES” (priority 2008, published 2010).
Values belong to the compound of their own block, whether it stands above or below them.

What was measured:
[1] = visual test of transparency for calcium-oxalate crystal formation in hot black tea with calcium salt (100 mg elemental calcium); assay type: physicochemical; details: 240 ml hot black tea
Procedure: The data describes the effect of different levels of Mg and ascorbic acid (vitamin C) on appearance of visible calcium oxalate precipitation. The experiments were performed with various soluble calcium salts by adding different levels of ascorbic acid and Magnesium citrate and testing the impact on formation of calcium-oxalate crystals in tea preparations. […] The calcium salt mixture was added and stirred into a cup holding 240 ml of hot black tea made with boiling tap water. A visual test of transparency was made at 5, 10, 15 and 20 minutes after adding the mixture to the tea for determining any impact on solution clarity by formation of calcium-oxalate crystals. If visible crystals were formed within 10 minutes the result was determined “unacceptable”, if visible crystals were formed between 10-20 minutes then the results was marked “borderline”. If no crystals were visible within 20 minutes the result was marked “acceptable”. FIGS. 1-5 show the experimental results for various calcium salts. In each of the figures the X-axis marks the amount of Magnesium Citrate (mg) and the Y-axis marks the amount of ascorbic acid (mg). Each indicia of a circle, diamond or square signifies the experimental outcome of a separate experiment; circles indicate an acceptable outcome, diamonds indicate a borderline acceptable (less than optimal) outcome, and squares indicate an unacceptable outcome.

Casein = assay: coagulation in casein-containing preparations with calcium salts (150 mg elemental calcium); assay type: physicochemical; details: room temperature
[2] = casein-containing non-dairy creamer in water

minimal amount of ascorbic acid required to delay or prevent calcium oxalate formation ([1]; in general across calcium salts (FIGS. 1-5)): 30 mg
Structure (SMILES): O=C1O[C@H]([C@@H](O)CO)C(O)=C1O [ascorbic acid]

Structure (SMILES): CC(=O)[O-].CC(=O)[O-].[Ca+2] [calcium acetate, Calcium diacetate]
need for additives to delay or prevent calcium oxalate formation, by calcium salt ([1]; ascorbic acid with or without Magnesium Citrate): additional “competing salt” is required even with higher level of ascorbic acids

level sufficient to limit the coagulation to a minimal and acceptable change in appearance (Casein; [2]): 825 mg
lowest level required for preventing coagulation (Casein; [2]): 3000 mg
lowest level that prevented coagulation (Casein; half & half (mix of milk and cream)): 500 mg
amount sufficient to prevent coagulation (Casein; whole milk (about 3% fat)): 10 mg
Structure (SMILES): O=P([O-])([O-])O.[K+].[K+] [PP, Potassium phosphate dibasic anhydrous]
